Test results published in article PMC5908784, “Extracellular loops 2 and 3 of the calcitonin receptor selectively modify agonist binding and efficacy” (Biochemical Pharmacology, 2018).
Changes are numbered by the printed parent chain. Where no end group is shown, it is not given here.

Key:
Assay in all cases: Homologous whole cell competition binding
Conditions in all cases: homologous competition of 125I-sCT(8-32), whole cells, mean ± S.E.M., SEM
hCTR F356A = target: T1, hCTR F356A (Homo sapiens, UniProt P30988, F356A)
T1 construct: c-Myc (N); expressed in transfected cells
T1 sequence (P30988 25-474 F356A): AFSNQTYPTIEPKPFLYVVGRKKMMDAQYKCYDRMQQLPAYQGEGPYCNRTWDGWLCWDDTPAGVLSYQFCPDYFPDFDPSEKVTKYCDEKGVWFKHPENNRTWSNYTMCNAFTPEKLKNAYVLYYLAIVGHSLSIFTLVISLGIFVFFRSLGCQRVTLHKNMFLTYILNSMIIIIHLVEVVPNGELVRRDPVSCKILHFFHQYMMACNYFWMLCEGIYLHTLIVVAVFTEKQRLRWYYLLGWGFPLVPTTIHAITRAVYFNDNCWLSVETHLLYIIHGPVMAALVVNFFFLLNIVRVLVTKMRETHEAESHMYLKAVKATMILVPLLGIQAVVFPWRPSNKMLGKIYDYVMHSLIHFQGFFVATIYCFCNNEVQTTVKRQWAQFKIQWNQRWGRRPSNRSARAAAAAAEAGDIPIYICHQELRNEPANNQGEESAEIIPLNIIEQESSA
Procedure: (§1) Homologous radioligand competition was performed on 2.5 × 10^4 cells/well seeded into 96-well trays and cultured overnight. Cells were incubated overnight at 4 °C with two concentrations of ^125I-sCT(8-32) (between 25 and 100 pM; specific activity, 2000 Ci/mmol^9) and serial dilutions of non-iodinated sCT(8-32). Non-bound ligand was removed and bound ligand activity was measured using a γ counter (Wallac Wizard 1470 Gamma Counter, Perkin Elmer, 80% counter efficiency). Values were normalized against non-specific binding (0%) defined by the presence of 1 μM of unlabelled sCT(8-32), and total ligand bound in absence of competing sCT(8-32) (100%).
(§2) IC50 and Bmax values were estimated from competitive inhibition of ^125I-sCT(8-32) binding using a 3-parameter logistic equation (log(inhibitor versus response)) in Prism (v7; Graphpad). Data were corrected for radioligand occupancy using the Cheng-Prusoff equation in Prism; as such data are reported as pKi. Emax and EC50 were estimated from concentration-response curves using with a 3-parameter logistic equation in Prism (v7). These values are a composite of functional affinity, efficacy and stimulus response coupling. The Black and Leff operational model of agonism was applied to separate effects on pathway-specific efficacy (τ) from those that modify ligand functional affinity (pKA). Derived τ values were normalized to experimentally determined levels of cell surface expression to provide a measure of efficacy (τc) that is independent of affinity and altered cell surface receptor expression. pKi, pKA and log τc values for mutant receptors were statistically compared to those of the WT receptor using a one-way analysis of variance (ANOVA) and Dunnett’s post-test. Significance was accepted at P < 0.05.

hCTR I279A = target: T2, hCTR I279A (Homo sapiens, UniProt P30988, I279A)
T2 construct: expressed in transfected cells
T2 sequence (P30988 25-474 I279A): T1 sequence (P30988 25-474 F356A) with I255A, A332F
Procedure: as §1, §2

hCTR N365A = target: T3, hCTR N365A (Homo sapiens, UniProt P30988, N365A)
T3 construct: c-Myc (N); expressed in transfected cells
T3 sequence (P30988 25-474 N365A): T1 sequence (P30988 25-474 F356A) with A332F, N341A
Procedure: as §1, §2

hCTR V358A = target: T4, hCTR V358A (Homo sapiens, UniProt P30988, V358A)
T4 construct: c-Myc (N); expressed in transfected cells
T4 sequence (P30988 25-474 V358A): T1 sequence (P30988 25-474 F356A) with A332F, V334A
Procedure: as §1, §2

Ki (hCTR F356A): 0.141 nM
Ki (hCTR I279A): 0.191 nM
Ki (hCTR N365A): 0.234 nM
Ki (hCTR V358A): 0.155 nM
Substance: VLGKLSQELHKLQTYPRTNTGSGTP-NH2 [sCT(8-32)]
